5 molecules from ChEMBL document CHEMBL1201862, “PubChem BioAssay data set” (2004) can be followed below.

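Growth conditions: 96-well plates. Treatment: test compound, 48 hours, 5 concentrations. Analysis: linear interpolation between bracketing concentrations; unreached endpoints set to highest concentration. GI50 is the concentration that inhibits growth by half.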 Activity calls are given as the source filed them. No stated cut-off is given here; in the data, active = GI50 up to about 1.1 µM and inactive = higher.

Some test systems named below: 786-0; ACHN; COLO 205; HCT-15; HL-60; HOP-18; HOP-62; NCI-H23; NCI-H522; OVCAR-5; OVCAR-8; SF-295; SK-MEL-2; SN12C; SNB-19; SNB-75; TK-10; UACC-62; MDA-MB-435; NCI/ADR-RES.
Test in all cases: NCI-60 cell line screen, 48 h

With `CC(=O)N(C(C)=O)C1=C2c3ccccc3N(S(=O)(=O)c3ccccc3)C2n2c(=O)n(-c3ccccc3)c(=O)n2C1` (configuration not stated), the GI50 is 38.6 µM (inactive) with 786-0; 30.9 µM (inactive) in the assay on ACHN; 30.7 µM (inactive) in the assay with COLO 205; 30.4 µM in the assay on HCT-15; 23.3 µM (inactive) with HL-60; 22 µM (inactive) with HOP-18. In addition, the GI50 in the assay with HOP-62 was 62.4 µM (inactive); with NCI-H23 it was 26.5 µM (inactive); in the assay on NCI-H522 it was 17.1 µM (inactive); with OVCAR-5, 30.6 µM (inactive); in the assay with OVCAR-8, 23.3 µM (inactive); in the assay with SF-295, 31.8 µM (inactive). For the same molecule, the GI50 was 22.9 µM (inactive) with SK-MEL-2; 69.7 µM (inactive) in the assay with SN12C; 30.3 µM (inactive) in the assay with SNB-19; 14 µM (inactive) with SNB-75; 36.8 µM (inactive) in the assay with TK-10; 18.1 µM (inactive) with UACC-62.
As for `NC(=O)N/N=C(/Cc1nc2ccc(C(=O)c3ccccc3)cc2nc1O)C(=O)Nc1ccc(C(F)(F)F)cc1[N+](=O)[O-]`, the GI50 in the assay on 786-0 is > 100 µM (inactive); in the assay with ACHN, > 100 µM (inactive); in the assay on COLO 205, 25.5 µM (inactive); in the assay with HCT-15 it was 50.7 µM; in the assay with HL-60, 42.1 µM (inactive); in the assay with HOP-18, 60.3 µM (inactive). For the same molecule, the GI50 in the assay with HOP-62 is > 100 µM (inactive); in the assay with NCI-H23, 84.7 µM (inactive); in the assay on NCI-H522, 22.6 µM (inactive); with OVCAR-5, > 100 µM (inactive); in the assay on OVCAR-8, 77.8 µM (inactive); in the assay with SF-295 it was 74.8 µM (inactive). Also, the GI50 with SK-MEL-2 was > 100 µM (inactive); in the assay with SN12C, > 100 µM (inactive); in the assay with SNB-19, > 100 µM (inactive); with SNB-75 it was 26 µM (inactive); in the assay on TK-10, > 100 µM (inactive); in the assay with UACC-62, 38.7 µM (inactive).
For `CC(=O)OCC1OC(n2cc(I)c(=O)[nH]c2=O)C(OC(C)=O)C(OC(C)=O)C1OC(C)=O` (configuration not stated), the GI50 in the assay on 786-0 is > 100 µM (inactive); in the assay with ACHN, > 100 µM (inactive); in the assay with COLO 205, > 100 µM (inactive); in the assay on HCT-15, greater than 100 µM; in the assay on HL-60, > 100 µM (inactive); in the assay with HOP-18, > 100 µM (inactive). Moreover, the GI50 in the assay with HOP-62, in the assay on NCI-H23, with NCI-H522, in the assay with OVCAR-5, in the assay with OVCAR-8 and in the assay on SF-295 was > 100 µM (inactive) in each case. Besides, the GI50 was > 100 µM (inactive) in the assay on SK-MEL-2; > 100 µM (inactive) with SN12C; > 100 µM (inactive) in the assay on SNB-19; 82.8 µM (inactive) with SNB-75; > 100 µM (inactive) in the assay on TK-10; > 100 µM (inactive) in the assay on UACC-62.
Turning to `O=C1NC2(NC(=O)C1=O)Nc1ccccc1S2`, the GI50 is 21.7 µM (inactive) with 786-0; 33.4 µM (inactive) in the assay with ACHN; 21.6 µM (inactive) with COLO 205; 33.7 µM with HCT-15; 21.6 µM (inactive) in the assay with HL-60; > 100 µM (inactive) in the assay with HOP-18. The GI50 is > 83.8 µM (inactive) with HOP-62; > 63 µM (inactive) in the assay with NCI-H23; 22.1 µM (inactive) in the assay with NCI-H522; > 100 µM (inactive) in the assay with OVCAR-5; 58.7 µM (inactive) in the assay with OVCAR-8; 38.6 µM (inactive) in the assay with SF-295. The GI50 in the assay on SK-MEL-2 is 55.8 µM (inactive); with SN12C it was 23.8 µM (inactive); in the assay on SNB-19, > 100 µM (inactive); with SNB-75, 68.7 µM (inactive); in the assay with TK-10 it was > 100 µM (inactive); in the assay on UACC-62 it was 23.8 µM (inactive).
`CCc1ccc(/C=C\c2cc(OC)c(OC)c(OC)c2)cc1`: the GI50 in the assay with 786-0 was < 0.0196 µM (active); in the assay on ACHN, 0.0285 µM (active); in the assay with COLO 205, 0.0122 µM (active); with HCT-15, 0.0449 µM; with HL-60 it was 0.0053 µM (active); in the assay with HOP-18, 0.48 µM (active). Besides, the GI50 in the assay with HOP-62 was 0.0531 µM (active); in the assay on MDA-MB-435, 2.04 nM (active); in the assay on NCI-H23 it was 0.0461 µM (active); with NCI-H522, 0.0118 µM (active); with NCI/ADR-RES, 2.86 nM (active); in the assay on OVCAR-5 it was 0.391 µM (active). Also, the GI50 with OVCAR-8 was 0.0456 µM (active); with SF-295 it was 0.00631 µM (active); in the assay on SK-MEL-2, 0.112 µM (active); in the assay with SN12C it was 0.0159 µM (active); in the assay on SNB-19, 0.0148 µM (active); in the assay with SNB-75, 0.0234 µM (active). Moreover, the GI50 in the assay with TK-10 is 0.337 µM (active); in the assay with UACC-62, 0.0132 µM (active).
